This assay concerns ECHCG - Echinochloa crus-galli (barnyardgrass). Description: Preemergence herbicidal activity of mixtures under field conditions, seeded rice, field trial Taiwan. Format: in vivo. On the procedure: A field trial was conducted in rice in Taiwan using standard herbicide small plot research methodology. Plot size was 1 meter (m) wide by 1 m long. There were 3 replicates per treatment. Soil type was medium texture. Rice was sown by hand direct dry seeding as per normal local cultural practices. The rice crop was grown using normal cultural practices for fertilization, watering, flooding and maintenance to ensure good growth of the crop and the weeds. Treatments were applied by backpack sprayer using compressed air at 30 pounds per square inch (psi) spray pressure. Spray tips were Flat Fan Teejet nozzles, delivering a spray volume of 300 liters per hectare (L/ha). For each treatment, the appropriate formulated product amount to treat the plot area, to achieve the desired application rate, based on unit area of application (hectare), was calculated, measured, and mixed in water prior to applying with the backpack sprayer. Treatments were rated as compared to the untreated control plots. The treated plots and control plots were rated blind at various intervals after application. Ratings were based of Percent (%) Visual weed control, where 0 corresponds to no injury and 100 corresponds to complete kill. Colby's equation was used to determine the herbicidal effects expected from the mixtures (Colby, S. R. Calculation of the synergistic and antagonistic response of herbicide combinations. Weeds 1967, 15, 20-22). The following equation was used to calculate the expected activity of mixtures containing two active ingredients, A and B: Expected=A+B−(A×B/100) A=observed efficacy of active ingredient A at the same concentration as used in the mixture and B=observed efficacy of active ingredient B at the same concentration as used in the mixture.

Each structure is given as a SMILES string.

In the case of `COc1cnc(OC)n2nc(NS(=O)(=O)c3c(OCC(F)F)cccc3C(F)(F)F)nc12` [Penoxsulam, 2-(2,2-difluoroethoxy)-N-(5,8-dimethoxy-[1,2,4]triazolo[1,5-c]pyrimidin-2-yl)-6-(trifluoromethyl)benzenesulfonamide], the “% Control ECHCG Obs” value turned out to be 47% (7 days after preemergence application, penoxsulam 7.5 gr ai/ha); 95% (7 days after preemergence application, penoxsulam 23 gr ai/ha); 7% (28 days after preemergence application, penoxsulam 7.5 gr ai/ha); 80% (28 days after preemergence application, penoxsulam 15 gr ai/ha).

Turning to `CCCOCCN(C(=O)CCl)c1c(CC)cccc1CC` [Pretilachlor, 2-chloro-N-(2,6-diethylphenyl)-N-(2-propoxyethyl)acetamide], the “% Control ECHCG Obs” value (7 days after preemergence application, pretilachlor 270 gr ai/ha) is 3%; the “% Control ECHCG Obs” value (7 days after preemergence application, pretilachlor 540 gr ai/ha) came out at 3%; the “% Control ECHCG Obs” value (28 days after preemergence application, pretilachlor 270 gr ai/ha) is 0%; the “% Control ECHCG Obs” value (28 days after preemergence application, pretilachlor 540 gr ai/ha) amounted to 0%.
